Tests used:
Abutilon theophrasti = test: Post-emergence herbicidal activity, ABUTH; assay type: in vivo; conditions: dosage rate 80 g/ha, scored visually after approx. 3 weeks vs untreated controls
Protocol: (§1) Seeds of monocotyledonous or dicotyledonous weed plants or crop plants are placed in sandy loam in wood fiber pots, covered with soil and grown in the greenhouse under good growth conditions. 2 to 3 weeks after sowing, the test plants are treated in the one-leaf stage. The compounds according to the invention, which are formulated as wettable powders (WP), are then sprayed onto the green plant parts in the form of an aqueous suspension or emulsion with a water application rate of 600 I/ha (converted) with addition of 0.2% of wetter. After the test plants have been left to stand in the greenhouse for approximately 3 weeks under optimal growth conditions, the activity of the preparation is scored visually in comparison with untreated controls (herbicidal activity in percent (%): 100% activity=plants have died, 0% activity=like control plants).

Amaranthus retroflexus = test: Post-emergence herbicidal activity, AMARE; assay type: in vivo; conditions: dosage rate 80 g/ha, scored visually after approx. 3 weeks vs untreated controls
Protocol: as §1

Alopecurus myosuroides [1] = test: Post-emergence herbicidal activity, ALOMY; assay type: in vivo; conditions: dosage rate 80 g/ha, scored visually after approx. 3 weeks vs untreated controls
Protocol: as §1

Echinochloa crus-galli = test: Post-emergence herbicidal activity, ECHCG; assay type: in vivo; conditions: dosage rate 80 g/ha, scored visually after approx. 3 weeks vs untreated controls
Protocol: as §1

Pharbitis purpurea = test: Post-emergence herbicidal activity, PHBPU; assay type: in vivo, Pharbitis/Ipomoea purpurea; conditions: dosage rate 80 g/ha, scored visually after approx. 3 weeks vs untreated controls
Protocol: as §1

Viola tricolor = test: Post-emergence herbicidal activity, VIOTR; assay type: in vivo; conditions: dosage rate 80 g/ha, scored visually after approx. 3 weeks vs untreated controls
Protocol: as §1

Stellaria media [2] = test: Post-emergence herbicidal activity, STEME; assay type: in vivo; conditions: dosage rate 80 g/ha, scored visually after approx. 3 weeks vs untreated controls
Protocol: as §1

Alopecurus myosuroides [3] = test: Pre-emergence herbicidal activity, ALOMY; assay type: in vivo; conditions: 80 g/ha, WP formulation, scored visually after approximately 3 weeks vs untreated controls (100% = plants have died)
Text: (§2) Seeds of monocotyledonous or dicotyledonous weed plants or crop plants are placed in sandy loam in wood fiber pots and covered with soil. The compounds according to the invention, which are formulated as wettable powders (WP) are then applied to the surface of the soil cover in the form of an aqueous suspension or emulsion with a water application rate of 600 I/ha (converted), with addition of 0.2% wetter. After the treatment, the pots are placed in the greenhouse and maintained under good growth conditions for the test plants. After approximately 3 weeks, the activity of the preparation is scored visually in comparison with untreated controls (herbicidal activity in percent (%): 100% activity=plants have died, 0% activity=like control plants).

Stellaria media [4] = test: Pre-emergence herbicidal activity, STEME; assay type: in vivo; conditions: 80 g/ha, WP formulation, scored visually after approximately 3 weeks vs untreated controls (100% = plants have died)
Text: as §2

Matricaria inodora = test: Pre-emergence herbicidal activity, MATIN; assay type: in vivo; conditions: 80 g/ha, WP formulation, scored visually after approximately 3 weeks vs untreated controls (100% = plants have died)
Text: as §2

Lolium multiflorum = test: Post-emergence herbicidal activity, LOLMU; assay type: in vivo; conditions: dosage rate 80 g/ha, scored visually after approx. 3 weeks vs untreated controls
Protocol: as §1

logp = assay type: physicochemical

Row | Compound | herbicidal activity ABUTH (Abutilon theophrasti) [%] | herbicidal activity AMARE (Amaranthus retroflexus) [%] | herbicidal activity ALOMY (Alopecurus myosuroides [1]) [%] | herbicidal activity ECHCG (Echinochloa crus-galli) [%] | herbicidal activity PHBPU (Pharbitis purpurea) [%] | herbicidal activity VIOTR (Viola tricolor) [%] | herbicidal activity STEME (Stellaria media [2]) [%] | herbicidal activity in percent, ALOMY (Alopecurus myosuroides [3]) [%] | herbicidal activity in percent, STEME (Stellaria media [4]) [%] | herbicidal activity in percent, MATIN (Matricaria inodora) [%] | herbicidal activity LOLMU (Lolium multiflorum) [%] | melting point [°C] | logP (logp)
1 | COc1cc(SC)nc(NC(=O)NS(=O)(=O)c2ncccc2C2=NOCC2)n1 [Ia-4] | 80 | 100 | 80 | 90 | 100 | 80 | 90 | 80 | 90 | 90 |  |  | 
2 | COc1nc(NC(=O)NS(=O)(=O)c2ncccc2C2=NOCC2)nc(OC)n1 [Ia-6] |  | 80 |  |  |  |  |  |  |  |  | 90 |  | 
3 | COc1cc(Cl)nc(NC(=O)NS(=O)(=O)c2ncccc2C2=NOC(C)(C)C2)n1 [Ia-14] |  | 90 |  | 80 |  | 90 | 80 |  |  |  |  |  | 
4 | COc1nc(C)nc(NC(=O)NS(=O)(=O)c2ncccc2C2=NOCC2)n1 [Ia-7] | 80 |  | 80 |  |  |  |  |  |  |  | 90 |  | 
5 | COc1cc(OC)nc(NC(=O)NS(=O)(=O)c2ncccc2C2=NOC(C)(C)C2)n1 [Ia-13] | 90 | 90 | 90 | 90 | 90 | 90 | 100 | 90 | 80 | 80 | 90 |  | 
6 | COc1cc(C)nc(NC(=O)NS(=O)(=O)c2ncccc2C2=NOCC2)n1 [Ia-9] | 80 |  | 80 |  | 90 |  | 90 |  | 80 |  | 90 |  | 
7 | COc1cc(OC)nc(NC(=O)NS(=O)(=O)c2ncccc2C2=NOC(C)C2)n1 (centres unmarked) [Ia-11] | 90 | 100 | 90 | 100 | 90 | 90 | 100 | 90 | 80 | 80 | 100 |  | 
8 | COc1cc(Cl)nc(NC(=O)NS(=O)(=O)c2ncccc2C2=NOCC2)n1 [Ia-1, N-[(4-Chloro-6-methoxypyrimidin-2-yl)carbamoyl]-3-(4,5-dihydroisoxazol-3-yl)-pyridine-2-sulfonamide] | 90 | 90 | 80 | 100 | 100 | 80 | 90 | 90 | 90 | 90 | 90 |  | 
9 | CCC1CC(c2cccnc2S(=O)(=O)NC(=O)Nc2nc(C)nc(OC)n2)=NO1 (centres unmarked) [Ia-18] |  |  |  | 80 |  |  |  |  |  |  |  |  | 
10 | CN(C)c1nc(NC(=O)NS(=O)(=O)c2ncccc2C2=NOCC2)nc(OCC(F)(F)F)n1 [Ia-8] | 80 |  |  | 80 |  |  |  |  |  |  | 90 |  | 
11 | CCCC1CC(c2cccnc2S(=O)(=O)NC(=O)Nc2nc(OC)cc(OC)n2)=NO1 (centres unmarked) [Ia-21] | 80 | 80 | 80 | 80 | 80 | 80 | 80 |  | 80 | 80 | 80 |  | 
12 | COc1cc(OC)nc(NC(=O)NS(=O)(=O)c2ncccc2C2=NOCC2)n1 [Ia-2] | 100 | 90 | 80 | 100 | 90 | 90 | 90 | 90 | 90 | 90 | 90 |  | 
13 | COc1cc(C)nc(NC(=O)NS(=O)(=O)c2ncccc2C2=NOC(C(C)C)C2)n1 (centres unmarked) [Ia-22] | 80 |  | 80 |  | 80 | 80 |  |  | 100 |  | 80 |  | 
14 | Clc1ncccc1C1=NOCC1 [XIa-1, 2-Chloro-3-(4,5-dihydroisoxazol-3-yl)pyridine] |  |  |  |  |  |  |  |  |  |  |  | 183 to 185 | 0.97
15 | CCCC1CC(c2cccnc2S(=O)(=O)NC(=O)Nc2nc(C)nc(OC)n2)=NO1 (centres unmarked) [Ia-23] |  |  |  |  |  |  |  |  |  | 80 |  |  | 
16 | CCCC1CC(c2cccnc2S(=O)(=O)NC(=O)Nc2nc(C)cc(OC)n2)=NO1 (centres unmarked) [Ia-17] |  | 80 | 80 |  |  |  |  | 90 |  |  | 80 |  | 
17 | COc1cc(C)nc(NC(=O)NS(=O)(=O)c2ncccc2C2=NOC(C)C2)n1 (centres unmarked) [Ia-15] |  | 90 | 90 | 80 |  | 80 | 80 | 80 |  | 80 | 80 |  | 
18 | CCC1CC(c2cccnc2S(=O)(=O)NC(=O)Nc2nc(Cl)cc(OC)n2)=NO1 (centres unmarked) [Ia-20] |  | 80 | 80 | 80 |  | 80 | 80 | 80 |  |  | 80 |  | 
19 | COc1cc(OC)nc(NC(=O)NS(=O)(=O)c2ncccc2C2=NOC(C(C)C)C2)n1 (centres unmarked) [Ia-10] | 90 | 100 | 90 | 100 | 80 | 90 | 90 | 80 | 80 | 80 | 90 |  | 
20 | COc1cc(Cl)nc(NC(=O)NS(=O)(=O)c2ncccc2C2=NOC(C)C2)n1 (centres unmarked) [Ia-16] |  | 90 | 80 | 80 |  | 80 | 100 | 80 |  | 80 | 90 |  | 
21 | CCC1CC(c2cccnc2S(=O)(=O)NC(=O)Nc2nc(OC)cc(OC)n2)=NO1 (centres unmarked) [Ia-24] | 80 | 80 |  | 100 | 90 |  | 90 | 90 | 90 | 90 |  |  | 
22 | Cc1cc(C)nc(NC(=O)NS(=O)(=O)c2ncccc2C2=NOCC2)n1 [Ia-3] | 90 | 100 | 80 | 90 | 90 | 80 | 90 | 80 | 80 | 80 | 80 |  | 
23 | CCC1CC(c2cccnc2S(=O)(=O)NC(=O)Nc2nc(C)cc(OC)n2)=NO1 (centres unmarked) [Ia-19] |  | 80 | 90 | 80 | 80 | 80 | 80 | 80 | 80 |  | 80 |  | 

From patent US20110028318A1, “HERBICIDAL COMPOUNDS BASED ON N-AZINYL-N'-PYRIDYLSULPHONYLUREAS” (Bayer CropScience AG, priority 2007, published 2011)
